Measured values published in ChEMBL document CHEMBL1201862, “PubChem BioAssay data set” (2004).
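Compound exposure: 48 hours, 5 concentrations, 96-well plates. GI50: concentration for 50% inhibition of growth.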 Activity calls are given as the source filed them. Cut-off read from the data, not from the text of the source: active = GI50 up to about 1.1 µM and inactive = higher.

Experiments:
Experiment in all cases: inhibition of tumour cell growth, NCI panel, 48 h
OVCAR-4 = system: OVCAR-4
A498 = system: A498
A549 = system: A549
NCI-H23 = system: NCI-H23
ACHN = system: ACHN
SK-MEL-28 = system: SK-MEL-28
K562 = system: K562
SNB-19 = system: SNB-19
HCT-116 = system: HCT-116
SK-OV-3 = system: SK-OV-3
DLD-1 = system: DLD-1
SN12C = system: SN12C
Malme-3M = system: Malme-3M
SF-295 = system: SF-295
RPMI-8226 = system: RPMI-8226
COLO 205 = system: COLO 205
SF-539 = system: SF-539
MDA-MB-231 = system: MDA-MB-231
MCF7 = system: MCF7
HOP-92 = system: HOP-92

SMILES	GI50 (OVCAR-4)	GI50 (A498)	GI50 (A549)	GI50 (NCI-H23)	GI50 (ACHN)	GI50 (SK-MEL-28)	GI50 (K562)	GI50 (SNB-19)	GI50 (HCT-116)	GI50 (SK-OV-3)	GI50 (DLD-1)	GI50 (SN12C)	GI50 (Malme-3M)	GI50 (SF-295)	GI50 (RPMI-8226)	GI50 (COLO 205)	GI50 (SF-539)	GI50 (MDA-MB-231)	GI50 (MCF7)	GI50 (HOP-92)
Cn1c(N)[n+](C(=O)OCc2ccccc2)c(=O)c2c1ncn2C(=O)OCc1ccccc1	65.2 µM (inactive)	30.8 µM (inactive)	73.1 µM (inactive)	46.2 µM (inactive)	24.4 µM (inactive)	> 100 µM (inactive)	> 100 µM (inactive)	30.8 µM (inactive)	52.2 µM (inactive)	28.9 µM (inactive)	95.1 µM (inactive)	> 100 µM (inactive)	> 100 µM (inactive)	49.5 µM (inactive)	> 100 µM (inactive)	> 100 µM (inactive)	–	–	–	–
CN(C)CCn1c(=O)c2ccc(NCCCN(C)CCCNc3ccc4c(=O)n(CCN(C)C)c(=O)n5c6ccc([N+](=O)[O-])cc6c(=O)c3c45)c3c(=O)c4cc([N+](=O)[O-])ccc4n(c1=O)c23	< 0.01 µM (active)	0.0478 µM (active)	< 0.01 µM (active)	< 0.01 µM (active)	< 0.01 µM (active)	0.0664 µM (active)	< 0.01 µM (active)	< 0.01 µM (active)	< 0.01 µM (active)	< 0.0258 µM (active)	–	< 0.01 µM (active)	0.0594 µM (active)	0.0136 µM (active)	< 0.01 µM (active)	< 0.01 µM (active)	< 0.01 µM (active)	< 0.021 µM (active)	< 0.01 µM (active)	< 0.0354 µM (active)
COC(=O)C(=O)C(C(=O)C=C(C)C)C(=O)C(=O)Nc1cccc(C(C)=O)c1 (configuration not stated)	> 100 µM (inactive)	> 100 µM (inactive)	> 100 µM (inactive)	> 100 µM (inactive)	> 100 µM (inactive)	> 100 µM (inactive)	> 100 µM (inactive)	> 100 µM (inactive)	> 100 µM (inactive)	> 100 µM (inactive)	> 100 µM (inactive)	> 100 µM (inactive)	> 100 µM (inactive)	> 100 µM (inactive)	> 100 µM (inactive)	> 100 µM (inactive)	> 100 µM (inactive)	–	–	–
OC(c1cc(-c2ccc(Cl)cc2)nc2ccccc12)C1CCCCN1 (configuration not stated)	2.28 µM (inactive)	1.82 µM (inactive)	1.84 µM (inactive)	2.15 µM (inactive)	1.95 µM (inactive)	1.87 µM (inactive)	1.48 µM (inactive)	3.3 µM (inactive)	1.92 µM (inactive)	2.16 µM (inactive)	–	1.75 µM (inactive)	0.873 µM (active)	1.94 µM (inactive)	1.37 µM (inactive)	1.73 µM (inactive)	1.79 µM (inactive)	1.95 µM (inactive)	1.82 µM (inactive)	3.37 µM (inactive)
O=C1OC(c2ccccc2)=N/C1=C\c1ccc(N(CCCl)CCCl)cc1	> 100 µM (inactive)	> 100 µM (inactive)	> 100 µM (inactive)	> 57.8 µM (inactive)	> 62.5 µM (inactive)	> 100 µM (inactive)	16.5 µM (inactive)	> 100 µM (inactive)	> 100 µM (inactive)	> 100 µM (inactive)	–	> 92 µM (inactive)	> 100 µM (inactive)	> 100 µM (inactive)	35.1 µM (inactive)	> 100 µM (inactive)	> 100 µM (inactive)	> 100 µM (inactive)	39.9 µM (inactive)	> 52.5 µM (inactive)
CCc1nc(N)nc(N)c1-c1ccc(N(C)Cc2ccccc2)c([N+](=O)[O-])c1	5.15 µM (inactive)	0.552 µM (active)	< 0.01 µM (active)	0.0708 µM (active)	0.0342 µM (active)	4.79 µM (inactive)	< 0.01 µM (active)	0.745 µM (active)	< 0.01 µM (active)	7.62 µM (inactive)	–	1.34 µM (inactive)	2.22 µM (inactive)	0.0522 µM (active)	0.191 µM (active)	0.522 µM (active)	0.14 µM (active)	7.67 µM (inactive)	0.202 µM (active)	0.962 µM (active)
CCNc1nnc(CSc2nc(-c3ccccc3)c(-c3ccccc3)[nH]2)s1	30.5 µM (inactive)	–	28.7 µM (inactive)	26.1 µM (inactive)	23.3 µM (inactive)	14.6 µM (inactive)	–	16.7 µM (inactive)	22 µM (inactive)	20.1 µM (inactive)	22.7 µM (inactive)	20.8 µM (inactive)	21.5 µM (inactive)	17.7 µM (inactive)	15.5 µM (inactive)	19.1 µM (inactive)	18.7 µM (inactive)	–	–	15.8 µM (inactive)
O=C1C2=C(CC3=C(C2)CS(=O)(=O)C3)C(=O)C2=C1CC1=C(C2)CS(=O)(=O)C1	10.9 µM (inactive)	43.7 µM (inactive)	> 90.2 µM (inactive)	23.9 µM (inactive)	36.3 µM (inactive)	> 43.1 µM (inactive)	10.6 µM (inactive)	17.7 µM (inactive)	11.7 µM (inactive)	38.5 µM (inactive)	–	15.3 µM (inactive)	5.42 µM (inactive)	26.7 µM (inactive)	28.6 µM (inactive)	13 µM (inactive)	36.3 µM (inactive)	9.59 µM (inactive)	13.2 µM (inactive)	> 46.7 µM (inactive)
CCN(CC)CCSc1c(C(C)=O)c(=O)n(-c2ccccc2)c(=S)n1-c1ccccc1	9.1 µM (inactive)	19.1 µM (inactive)	13.8 µM (inactive)	14.7 µM (inactive)	3.77 µM (inactive)	10.5 µM (inactive)	3.09 µM (inactive)	21.1 µM (inactive)	2.28 µM (inactive)	34 µM (inactive)	–	14.4 µM (inactive)	6.1 µM (inactive)	> 78 µM (inactive)	2.13 µM (inactive)	1.8 µM (inactive)	2.4 µM (inactive)	13.1 µM (inactive)	3.18 µM (inactive)	1.9 µM (inactive)
Cc1cc(C(C)(C)C)cc(CNC2CCCCC2)c1O	19.5 µM (inactive)	16.6 µM (inactive)	18.4 µM (inactive)	15.4 µM (inactive)	17.1 µM (inactive)	16.7 µM (inactive)	21.7 µM (inactive)	16.6 µM (inactive)	15.4 µM (inactive)	20 µM (inactive)	–	15.8 µM (inactive)	14.3 µM (inactive)	16 µM (inactive)	17.5 µM (inactive)	17.3 µM (inactive)	18.2 µM (inactive)	18 µM (inactive)	18.1 µM (inactive)	15.5 µM (inactive)
COC(C(=O)C(O)C(C)O)C1CC2C=C3C=C(OC4CC(OC5CC(O)C(OC)C(C)O5)C(OC(C)=O)C(C)O4)C(C)C(O)=C3C(O)=C2C(=O)C1OC1CC(OC2CC(OC3CC(C)(O)C(OC(=O)C(C)C)C(C)O3)C(O)C(C)O2)C(O)C(C)O1 (configuration not stated)	< 0.01 µM (active)	< 0.01 µM (active)	< 0.01 µM (active)	< 0.01 µM (active)	< 0.01 µM (active)	< 0.01 µM (active)	< 0.01 µM (active)	< 0.01 µM (active)	< 0.01 µM (active)	< 0.01 µM (active)	–	< 0.01 µM (active)	< 0.01 µM (active)	< 0.01 µM (active)	< 0.01 µM (active)	< 0.01 µM (active)	< 0.01 µM (active)	< 0.01 µM (active)	< 0.01 µM (active)	< 0.01 µM (active)
COc1cc(Oc2c(C)c(Cl)c(OC)c(Cl)c2OC)c2c(c1Cl)COC2=O	10.8 µM (inactive)	49.7 µM (inactive)	34.4 µM (inactive)	18.6 µM (inactive)	12.9 µM (inactive)	62.2 µM (inactive)	2.32 µM (inactive)	42.2 µM (inactive)	6.34 µM (inactive)	41.5 µM (inactive)	–	17.4 µM (inactive)	15.2 µM (inactive)	15.6 µM (inactive)	3.52 µM (inactive)	20.9 µM (inactive)	31.5 µM (inactive)	24.2 µM (inactive)	14.4 µM (inactive)	54 µM (inactive)
Cc1nc(-c2ccccc2)c(-c2ccccc2)s1	19.6 µM (inactive)	17.6 µM (inactive)	25.8 µM (inactive)	28.1 µM (inactive)	26.9 µM (inactive)	45 µM (inactive)	18.8 µM (inactive)	31 µM (inactive)	25.6 µM (inactive)	22.9 µM (inactive)	–	37.9 µM (inactive)	21.4 µM (inactive)	24.8 µM (inactive)	14.3 µM (inactive)	18.3 µM (inactive)	22.6 µM (inactive)	22.5 µM (inactive)	25.3 µM (inactive)	20.6 µM (inactive)
CCOC(=O)C1OC(C2(C)OC3(OC4(C=CC3O)OC(C(C)C(=O)C(C)C(O)C(C)CC(C)c3c(Cl)cc(C)c(O)c3C(=O)O)C(C)CC4C)C(C)C2OC)CC1O (configuration not stated)	0.544 µM (active)	0.46 µM (active)	0.406 µM (active)	0.507 µM (active)	0.441 µM (active)	0.418 µM (active)	0.505 µM (active)	0.249 µM (active)	0.693 µM (active)	0.177 µM (active)	–	0.207 µM (active)	0.294 µM (active)	0.257 µM (active)	0.54 µM (active)	0.818 µM (active)	0.65 µM (active)	1.15 µM (inactive)	0.181 µM (active)	2.13 µM (inactive)
FC(F)(F)c1ccc2c(-c3cc[nH]c3)ccnc2c1	53.2 µM (inactive)	23.8 µM (inactive)	26 µM (inactive)	28 µM (inactive)	31.8 µM (inactive)	35.6 µM (inactive)	30 µM (inactive)	17.5 µM (inactive)	32.5 µM (inactive)	> 100 µM (inactive)	–	41 µM (inactive)	24.5 µM (inactive)	30 µM (inactive)	34.2 µM (inactive)	23.6 µM (inactive)	37.8 µM (inactive)	40.1 µM (inactive)	30.8 µM (inactive)	52.4 µM (inactive)
